Experimental data published in patent US6855711B1, “Pharmaceutical compositions comprising iron chelators for the treatment of neurodegenerative disorders and some novel iron chelators” (Yeda Research and Development Co. Ltd., priority 1999, dated 2005).
“Also recorded” adds a separate entry of the source. Where two headings read alike, the source gives them in different places. Marks after values point to notes of the source that are not given here.

How the values were obtained:
[1] = test system: 6-OHDA-induced dopaminergic neuron degeneration; details: cited from earlier work
[2] = test system: 6-OHDA-induced lesion of nigrostriatal dopamine neurons; assay: Prevention of 6-OHDA-induced toxicity in rats (striatal biogenic amines and metabolites by HPLC); assay type: in vivo, rat
Protocol: Male Sprague-Dawley rats, weighing 230-270 g, were housed in a controlled-temperature room with a standardized dark-light schedule (12/12 h) for 4 weeks. Rats were anesthetized with a mixture of 15 mg/kg of pentobarbital and 60 mg/kg of chloral hydrate. 6-OHDA (250 μg in 5 μl of 0.9% NaCl containing 0.2% ascorbic acid), the chelator 3 or 15 (200 μg in 5 μl), a combination of both (the chelator 3 or 15 15 min before 6-OHDA), or saline (5 μl) (control) was injected into the right cerebral ventricle using stereotactic techniques. The coordinates with bregma as the reference were D 0.8 mm, L 1.3 mm, and V 3.6 mm according to the atlas of Paxinos and Watson. Pargyline (50 mg/kg i.p.) and desmethylimipramine-HCl (25 mg/kg i.p.) were administered to all the rats 60 min before intracerebroventricular injection. Pargyline inhibits monoamine oxidase and thereby enhances the toxicity of 6-OHDA, and desmethylimipramine provides protection for central noradrenergic neurons from the toxin. All the animals received a daily injection of isotonic glucose (4 ml/day i.p.) until they regained their original body weight. Behavioral tests were performed 4 weeks after operation, commencing between 8 and 10 a.m. The rats were killed after the behavioral studies. Desferal was obtained from Ciba Geigy, and other chemicals were from Sigma (St. Louis, Mo., U.S.A.).
Norepinephrine (NE), DA, and metabolite levels were measured as follows: four weeks postoperatively, rats were killed by decapitation, and the brains were rapidly removed. The striata were dissected on an ice-chilled glass plate and quickly frozen in liquid nitrogen. The endogenous levels of NE, DA, 3,4-dihydroxyphenylacetic acid (DOPAC), and homovanillic acid (HVA) were determined by HPLC with electrochemical detection (Ben-Shachar et al. (1991) Eur. J. Pharmacol. 202:177-83). All data are expressed as mean±SEM values. Statistical analysis was carried out by analysis of variance with multiple comparisons followed by Student's t test.
Striatal dopamine and its metabolites DOPAC and HVA concentrations, which were determined by HPLC, served as a criteria for the extent of the damage caused by 6-OHDA in the presence or absence of the iron chelators. […] Dopamine turnover was normal in rats pretreated with iron chelators (Table 1).
Based on confirmation properties of the two iron chelators 3 and 15, it was considered that Compound 15 has a better chance to cross the blood-brain-barrier (BBB) and the studies were continued with Compound 15. In order to decrease to minimum the possibility of a direct interaction between the chelator and the toxin as a cause for the protection, and to try to find a smaller effective dose of the chelator, 1 μg Compound 15 was injected intraventricularly prior to the injection of 250 μg 6-OHDA.
The main goal at this stage of research was to find out whether Compound 15 given peripherally would be able to prevent 6-OHDA-induced toxicity. In other words the question was whether the chelator will stay stable in the periphery, cross the BBB and […]. Control group received phosphate buffer pH−6.4 0.1M. On the 11th day, the rats of both groups were injected intraventricularly with 250 μg 6-OHDA.

[3] = test system: iron-induced lipid peroxidation (MDA formation) in rat brain cortex homogenates; assay: Prevention of iron-induced lipid peroxidation (MDA formation, TBA method) in rat brain cortex homogenates; assay type: biochemical; details: 10^−3M chelator; for reduction of iron-induced MDA formation: 10^−4M ferric chloride
Protocol: The ability of the compounds of the invention to prevent lipid peroxidation in brain tissue was first screened in rat brain homogenates in vitro by a method involving the detection of free radicals performed by […] and measurement of the MDA formation, as described by D. Ben-Shachar et al. (1991) J. Neurochem. 57: 1609-14. In this method, brain cortex homogenates are prepared in sucrose and incubated alone to determine basal lipid peroxidation, or incubated after the addition of Fe2(SO4)3 or FeCl3 for Fe-induction of maximum free-radical formation, and in the presence of the iron chelators to be tested. After addition of TBA, lipid peroxidation is assayed by measurement of MDA formation.
Brain cortex homogenates (10% wt/vol) from male Wistar rats were prepared in 0.3M sucrose and incubated in air as described (Rehncrona et al., (1980) J. Neurochem. 34: 1630-38). Aliquots (0.1 ml) of homogenate were incubated alone at 30° C. for 90 min to determine basal lipid peroxidation, or incubated after the addition of 10^−4 Fe2(SO4), or FeCl3 and in the presence of 10^−3M iron chelator of formula I or II. For the assay, to 0.3 ml of the homogenate there were added 0.2 ml of 8% SDS, 1.5 ml of 20% acetic acid pH 3.0-3.5, 1.5 ml of 0.8% thiobarbituric acid (TBA) and 0.5 ml of H2O2×2, the mixture was incubated at 95° C. for 60 min, cooled and lipid peroxidation was assayed by measurement of malondialdehyde formation at 532 nm, as described (Dexter et al. (1989) J. Neurobiochem. 52: 381-89). Standard curve: 1,1,3,3-tetraethoxypropane 0.1-25 nmol in 0.3 ml.
In another experiment, the Compounds 3, 7, 9-17 and 26 were examined for their ability to inhibit lipid peroxidation in vitro by measuring their capability to inhibit MDA formation in the presence of 10^−4M FeCl3 in rat brain homogenates. Ferric chloride(10^−4M)-induced lipid peroxidation, as measured by MDA formation in rat cerebral cortex homogenates, was inhibited to a different degree by 10^−3M of the various chelators.

[4] = Table 1: 200 μg chelator intraventricular prior to 250 μg 6-OHDA (Comb.), 6-OHDA = 250 μg 6-OHDA alone
[5] = Table 1: 200 μg chelator intraventricular prior to 250 μg 6-OHDA (Comb.), 6-OHDA = 250 μg 6-OHDA alone, mean±SEM
[6] = Table 2: 1 μg chelator 15 intraventricular prior to 250 μg 6-OHDA (Comb.), 6-OHDA = 250 μg 6-OHDA alone
[7] = Table 3: chelator 15 5 mg/Kg/day i.p. for 10 days + 250 μg 6-OHDA intraventricular (Comb.), 6-OHDA = 250 μg 6-OHDA without chelator
[8] = intracerebroventricular 6-OHDA (250 μg)

`Cl.Cl.Cl.Cl.Oc1ccc(CN2CCN(Cc3ccc(O)c4ncccc34)CC2)c2cccnc12` showed a melting point of 227 to 228 °C.

For `CC(=O)N(O)CCCCCNC(=O)CCC(=O)N(O)CCCCCNC(=O)CCC(=O)N(O)CCCCCN` [desferrioxamine], the “protection against the 6-OHDA-induced reduction in striatal DA content” value ([1]; 13 ng i.c.v. prior to 6-OHDA (250 μg)) is given as 100%, the “protection against the 6-OHDA-induced reduction in striatal DA content” value ([1]; 130 ng i.c.v. prior to 6-OHDA (250 μg)) is given as ~60% and the “DA release (HVA/DA ratio), in words” value ([1]; desferrioxamine i.c.v. prior to 6-OHDA) is given as “normalization of DA release”. For the same compound, the “dopaminergic-related behavioral responses (spontaneous movements in a novel environment, rearing), in words” value ([1]; desferrioxamine-pretreated rats, 6-OHDA) was “almost normal behavioral responses” and the “protection against 6-OHDA-induced lesions of nigrostriatal dopamine neurons, in words” value ([1]; rats) was “protected”.

For `NCCc1cc(O)c(O)cc1O` [Compound 6-OHDA, 6-hydroxydopamine], the “decrease in striatal dopamine levels” value ([2]; 250 μg 6-OHDA intraventricular, rats) was 80%, the “(DOPAC + HAV)/DA (dopamine turnover)” value [2, 4] was 0.202 and the “5-HIAA in rat striatum” value [2, 5] was 3.76 ± 0.20 pmol/mg tissue. The “5-HT in rat striatum” value [2, 5] was 4.00 ± 0.35 pmol/mg tissue, the “DA in rat striatum” value [2, 5] was 19.93 ± 5.0^c pmol/mg tissue and the “DOPAC in rat striatum” value [2, 5] was 1.79 ± 0.25^a pmol/mg tissue. The “HVA in rat striatum” value [2, 5] was 2.24 ± 0.23 pmol/mg tissue, the “NE in rat striatum” value [2, 5] was 5.0 ± 0.1 pmol/mg tissue and the “5-HIAA in rat striatum” value [2, 6] was 6.29 ± 0.65 pmol/mg tissue. The “5-HT in rat striatum” value [2, 6] was 3.22 ± 0.42 pmol/mg tissue, the “(DOPAC + HAV)/DA (dopamine turnover)” value [2, 6] was 0.14 and the “DA in rat striatum” value [2, 6] was 12.93 ± 3.3^a pmol/mg tissue. For the same compound, the “DOPAC in rat striatum” value [2, 6] was 0.76 ± 0.11^a pmol/mg tissue, the “HVA in rat striatum” value [2, 6] was 1.10 ± 0.21^a pmol/mg tissue and the “NE in rat striatum” value [2, 6] was 1.1 ± 0.1 pmol/mg tissue. For the same compound, the “5-HIAA in rat striatum” value [2, 7] was 1.57 ± 0.07 pmol/mg tissue, the “5-HT in rat striatum” value [2, 7] was 2.60 ± 0.15 pmol/mg tissue and the “(DOPAC + HAV)/DA (dopamine turnover)” value [2, 7] was 0.16. For the same compound, the “DA in rat striatum” value [2, 7] was 9.69 ± 2.63^a pmol/mg tissue, the “DOPAC in rat striatum” value [2, 7] was 0.51 ± 0.11^A pmol/mg tissue and the “HVA in rat striatum” value [2, 7] was 1.05 ± 0.19^A pmol/mg tissue. For the same compound, the “NE in rat striatum” value [2, 7] was 1.22 ± 0.04 pmol/mg tissue, the “increase in DA release as indicated by the HVA/DA ratio” value [1, 8] was 2.5 fold and the “reduction in striatal tissue content of DOPAC” value [1, 8] was 79%. For the same compound, the “reduction in striatal tissue content of HVA” value [1, 8] was 70% and the “reduction in striatal tissue content of dopamine (DA)” value [1, 8] was 88%.

In the case of `Cl.Cl.Cl.Oc1ccc(CN2CCNCC2)c2cccnc12`, the melting point is reported as 232 to 234 °C (dec.).

In the case of `CC(=O)c1cc(CN2CCN(CCO)CC2)ccc1O` [Compound 5, 2-acetyl-4-[4-(2-hydroxyethyl)piperazin-1-yl-methyl]phenol], the melting point is reported as 72 to 75 °C.

With `OCCN1CCN(Cc2ccc(O)c3ncccc23)CC1` [Compound 15, 5-(4-(2-hydroxyethyl)piperazin-1-ylmethyl)-8-hydroxyquinoline] the “inhibition of MDA formation (lipid peroxidation), in words” value ([3]; 10^−4M FeCl3, rat cerebral cortex homogenates) was “most effective”, the “reduction of iron-induced MDA formation” value [3] was ~50% and the “prevention of 6-OHDA-induced lesion, in words” value ([2]; 1 μg intraventricular prior to 250 μg 6-OHDA) was “effective in preventing 6-OHDA-induced lesion”. For the same compound, the “prevention of 6-OHDA-induced reduction in striatal dopamine and DOPAC concentrations, in words” value ([2]; 200 μg chelator intraventricular prior to 250 μg 6-OHDA) was “efficiently prevented”, the “protection against 6-OHDA toxicity, in words” value ([2]; 5 mg/Kg i.p. for 10 days before intraventricular 250 μg 6-OHDA) was “Partial but significant protection; also recorded: partially protected” and the “(DOPAC + HAV)/DA (dopamine turnover)” value [2, 4] was 0.15. For the same compound, the “5-HIAA in rat striatum” value [2, 5] was 4.48 ± 0.38 pmol/mg tissue, the “5-HT in rat striatum” value [2, 5] was 4.24 ± 0.43 pmol/mg tissue and the “DA in rat striatum” value [2, 5] was 33.8 ± 4.3 pmol/mg tissue. For the same compound, the “DOPAC in rat striatum” value [2, 5] was 2.45 ± 0.25 pmol/mg tissue, the “HVA in rat striatum” value [2, 5] was 2.67 ± 0.33 pmol/mg tissue and the “NE in rat striatum” value [2, 5] was 5.01 ± 0.1 pmol/mg tissue. For the same compound, the “5-HIAA in rat striatum” value [2, 6] was 4.98 ± 0.46 pmol/mg tissue, the “5-HT in rat striatum” value [2, 6] was 4.84 ± 0.45 pmol/mg tissue and the “(DOPAC + HAV)/DA (dopamine turnover)” value [2, 6] was 0.08. The “DA in rat striatum” value [2, 6] was 62.9 ± 3.13 pmol/mg tissue, the “DOPAC in rat striatum” value [2, 6] was 2.49 ± 0.13 pmol/mg tissue and the “HVA in rat striatum” value [2, 6] was 2.77 ± 0.25 pmol/mg tissue. The “NE in rat striatum” value [2, 6] was 1.3 ± 0.12 pmol/mg tissue, the “5-HIAA in rat striatum” value [2, 7] was 1.59 ± 0.16 pmol/mg tissue and the “5-HT in rat striatum” value [2, 7] was 2.6 ± 0.31 pmol/mg tissue. The “(DOPAC + HAV)/DA (dopamine turnover)” value [2, 7] was 0.15, the “DA in rat striatum” value [2, 7] was 24.4 ± 4.4^ab pmol/mg tissue and the “DOPAC in rat striatum” value [2, 7] was 1.4 ± 0.25 pmol/mg tissue. For the same compound, the “HVA in rat striatum” value [2, 7] was 2.28 ± 0.75 pmol/mg tissue and the “NE in rat striatum” value [2, 7] was 1.21 ± 0.4 pmol/mg tissue.

With `O=C(CCC(CN(CC(=O)OCc1ccccc1)CC(=O)OCc1ccccc1)N(CC(=O)OCc1ccccc1)CC(=O)OCc1ccccc1)NCCN1CCN(C(=O)OCc2ccccc2)CC1` (stereo not shown) [Compound 1, N-[2-(4-carbobenzoxypiperazin-1-yl)ethyl]-4,5-bis[bis(benzyloxycarbonylmethyl)amino]valeramide] the “reduction of iron-induced MDA formation” value [3] was ~50%.
